Values joined by “and” are separate entries in the source; they are usually repeats but may differ in a detail not shown here. Identical values can stand only once. Toxic doses and inconclusive results are not listed.

In this assay the test system is BDF1 mice, B16 melanoma ip, median survival T/C. In words: NCI In Vivo Anticancer Drug Screen. Data for tumor model B16 Melanoma (intraperitoneal) in B6D2F1 (BDF1) mice. The note with it: endpoint: median survival time, higher = longer survival. The procedure, abridged:
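In this screen, activity was judged from survival or tumor size in treated versus vehicle-treated tumor-bearing mice, reported as T/C.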

[1] abbreviates: dose: 3.0 mg/kg/injection, schedule: Q01DX009 (ip), vehicle: saline with Tween-80.
Setting [2] is: dose: 6.0 mg/kg/injection, schedule: Q01DX009 (ip), vehicle: saline with Tween-80.
Setting [3] is: dose: 100.0 mg/kg/injection, schedule: Q01DX009 (ip), vehicle: saline with Tween-80.
The mark [4] stands for this setting: dose: 200.0 mg/kg/injection, schedule: Q01DX009 (ip), vehicle: saline with Tween-80.
The mark [5] stands for this setting: dose: 400.0 mg/kg/injection, schedule: Q01DX009 (ip), vehicle: saline with Tween-80.
Setting [6] is: dose: 25.0 mg/kg/injection, schedule: Q01DX009 (ip), vehicle: Klucel (hydroxypropylcellulose) (HPC).
Where [7] appears, read: dose: 50.0 mg/kg/injection, schedule: Q01DX009 (ip), vehicle: Klucel (hydroxypropylcellulose) (HPC).
Where [8] appears, read: dose: 100.0 mg/kg/injection, schedule: Q01DX009 (ip), vehicle: Klucel (hydroxypropylcellulose) (HPC).
[9] abbreviates: dose: 25.0 mg/kg/injection, schedule: Q01DX009 (ip), vehicle: saline with Tween-80.
Where [10] appears, read: dose: 50.0 mg/kg/injection, schedule: Q01DX009 (ip), vehicle: saline with Tween-80.

`CC[C@@H](O)C[C@H]1CCC[C@@]2(C[C@@H]3OC(=O)/C=C/[C@@](C)(O)[C@@H](O)[C@H](C)[C@@H](O)[C@H](OC4CCC(N(C)C)C(C)O4)[C@@H](O)[C@](C)(O)CCCCC/C=C/[C@@H]4CC(C)(C)O[C@@]4(O)C[C@H](O2)[C@H]3C)O1` (some centres undefined): the T/C reads like this: (dose: 4.0 micrograms/kg/injection, schedule: Q01DX009 (ip), vehicle: saline) 101 % of control; (dose: 8.0 micrograms/kg/injection, schedule: Q01DX009 (ip), vehicle: saline) 97 % of control; (dose: 16.0 micrograms/kg/injection, schedule: Q01DX009 (ip), vehicle: saline) 109 % of control; (dose: 32.0 micrograms/kg/injection, schedule: Q01DX009 (ip), vehicle: saline) 93 % of control.

As for `CCCCC(CC)C1OC(=O)C(C)O1` (centres undefined), the T/C runs as follows: (dose: 100.0 mg/kg/injection, schedule: Q04DX003 (ip), vehicle: Klucel (hydroxypropylcellulose) (HPC)) 98 % of control; (dose: 200.0 mg/kg/injection, schedule: Q04DX003 (ip), vehicle: Klucel (hydroxypropylcellulose) (HPC)) 100 % of control.

On to `C=CCOCC(O)CN(C)C1CCCCC1` (centres undefined), for which the T/C was 121 % of control (dose: 12.5 mg/kg/injection, schedule: Q04DX003 (ip), vehicle: saline); 100 % of control (dose: 25.0 mg/kg/injection, schedule: Q04DX003 (ip), vehicle: saline); 100 % of control and 104 % of control (dose: 50.0 mg/kg/injection, schedule: Q04DX003 (ip), vehicle: saline).

With `Oc1ccc(Cl)c2cccnc12`, the T/C runs as follows: (dose: 12.5 mg/kg/injection, schedule: Q01DX009 (ip), vehicle: carboxymethylcellulose (CMC)) 90 % of control; (dose: 25.0 mg/kg/injection, schedule: Q01DX009 (ip), vehicle: carboxymethylcellulose (CMC)) 96 % of control; (dose: 50.0 mg/kg/injection, schedule: Q01DX009 (ip), vehicle: carboxymethylcellulose (CMC)) 97 % of control.

On to `COC(=O)Nc1nc2ccc(C(=O)c3cccs3)cc2[nH]1`, for which the T/C is 97 % of control (dose: 20.0 mg/kg/injection, schedule: Q01DX015 (ip), vehicle: saline); 103 % of control (dose: 50.0 mg/kg/injection, schedule: Q04DX003 (ip), vehicle: other); 180 % of control (dose: 50.0 mg/kg/injection, schedule: Q04DX003 (ip), vehicle: saline with Tween-80); 165 % of control (dose: 50.0 mg/kg/injection, schedule: Q05DX005 (ip), vehicle: saline); 195 % of control (dose: 60.0 mg/kg/injection, schedule: Q05DX005 (ip), vehicle: saline); 191 % of control (dose: 70.0 mg/kg/injection, schedule: Q05DX005 (ip), vehicle: saline). Also, the T/C reads like this: (dose: 75.0 mg/kg/injection, schedule: Q04DX003 (ip), vehicle: other) 121 % of control; (dose: 100.0 mg/kg/injection, schedule: Q04DX003 (ip), vehicle: saline with Tween-80) 211 % of control.

As to `c1ccc([Te][Te]c2ccccc2)cc1`, the T/C was 123 % of control under setting [1] and 123 % of control under setting [2].

Turning to `Nc1nc(N)nc(-c2ccc([N+](=O)[O-])o2)n1`, the T/C runs as follows: under setting [3], 103 % of control; under setting [4], 97 % of control; under setting [5], 90 % of control.

As to `CCN(CC)CCCC#CCN1CCCC1`, the T/C is, setting by setting: under setting [6], 100 % of control; under setting [7], 93 % of control; under setting [8], 93 % of control.

Take `O=CN(O)CC(=O)O`: the T/C reads like this: (dose: 100.0 mg/kg/injection, schedule: Q04DX003 (ip), vehicle: saline) 97 % of control; (dose: 200.0 mg/kg/injection, schedule: Q04DX003 (ip), vehicle: saline) 100 % of control; (dose: 400.0 mg/kg/injection, schedule: Q04DX003 (ip), vehicle: saline) 100 % of control.

In the case of `CN(C)CCCN=Cc1ccc(O)cc1O.CN(C)CCCN=Cc1ccc(O)cc1O.[Ni+2]`, the T/C is 95 % of control (dose: 6.25 mg/kg/injection, schedule: Q01DX009 (ip), vehicle: saline with Tween-80); 95 % of control (dose: 12.5 mg/kg/injection, schedule: Q01DX009 (ip), vehicle: saline with Tween-80); 117 % of control (dose: 12.5 mg/kg/injection, schedule: Q04DX003 (ip), vehicle: saline with Tween-80); 92 % of control under setting [9]; 86 % of control (dose: 25.0 mg/kg/injection, schedule: Q04DX003 (ip), vehicle: saline with Tween-80).

`O=Nc1c(O)ccc2ccccc12`: the T/C is 90 % of control under setting [6] and 93 % of control under setting [7].

With `O=C(O)c1ccc(C(Cl)(Cl)Cl)cc1`, the T/C under setting [9] is 105 % of control, the T/C under setting [10] was 103 % of control and the T/C under setting [3] was 98 % of control.

As to `COCCOC(=O)CCCCC(=O)OCCOC`, the T/C is 118 % of control (dose: 100.0 mg/kg/injection, schedule: Q01DX009 (ip), vehicle: saline); 106 % of control (dose: 200.0 mg/kg/injection, schedule: Q01DX009 (ip), vehicle: saline); 114 % of control (dose: 400.0 mg/kg/injection, schedule: Q01DX009 (ip), vehicle: saline).

In the case of `COC(=O)C(CSCc1ccccc1)NC(=O)CCNC(=O)OCc1ccccc1` (centres undefined), the T/C is 107 % of control (dose: 25.0 mg/kg/injection, schedule: Q01DX009 (ip), vehicle: other); 92 % of control (dose: 50.0 mg/kg/injection, schedule: Q01DX009 (ip), vehicle: other); 97 % of control (dose: 100.0 mg/kg/injection, schedule: Q01DX009 (ip), vehicle: other); 93 % of control (dose: 200.0 mg/kg/injection, schedule: Q01DX009 (ip), vehicle: other).

Consider `Cc1ccc(NC(=O)Nc2ccc(Cl)c(Cl)c2)cc1Cl`, for which the T/C is, setting by setting: under setting [6], 96 % of control; under setting [7], 105 % of control.

`Nc1[nH]c(=O)nc2nc[nH]c12`: the T/C reads like this: (dose: 12.5 mg/kg/injection, schedule: Q01DX009 (ip), vehicle: saline) 108 % of control; (dose: 25.0 mg/kg/injection, schedule: Q01DX009 (ip), vehicle: saline) 94 % of control; (dose: 50.0 mg/kg/injection, schedule: Q01DX009 (ip), vehicle: saline) 89 % of control.

On to `CC1=NN(c2cccc(Cl)c2)C(=O)C1`, for which the T/C runs as follows: under setting [10], 108 % of control; under setting [3], 109 % of control; under setting [4], 101 % of control.

Take `CCOC(=O)c1cc(-c2ccc(Cl)cc2)nc2c(Cl)cc(Cl)cc12`: the T/C under setting [3] is 101 % of control, the T/C under setting [4] is 89 % of control and the T/C under setting [5] was 88 % of control.

Consider `C=CCOc1cccc(OCC=C)c1C`, for which the T/C was 106 % of control under setting [3] and 97 % of control under setting [4].

On to `CC(=O)[O][Hg][c]1s[c]([Hg][O]C(C)=O)[c]([Hg][O]C(C)=O)[c]1[Hg][O]C(C)=O`, for which the T/C reads like this: (dose: 0.75 mg/kg/injection, schedule: Q01DX009 (ip), vehicle: saline with Tween-80) 102 % of control; (dose: 1.5 mg/kg/injection, schedule: Q01DX009 (ip), vehicle: saline with Tween-80) 92 % of control; under setting [1], 87 % of control; under setting [2], 97 % of control.

Consider `C[CH2][Pb]([CH2]C)([CH2]C)[O]C(=O)c1ccccc1`, for which the T/C (dose: 0.75 mg/kg/injection, schedule: Q01DX009 (ip), vehicle: Klucel (hydroxypropylcellulose) (HPC)) was 93 % of control and the T/C (dose: 1.5 mg/kg/injection, schedule: Q01DX009 (ip), vehicle: Klucel (hydroxypropylcellulose) (HPC)) is 90 % of control.

With `CCCCNc1ccc(Nc2ccccc2)cc1`, the T/C runs as follows: (dose: 25.0 mg/kg/injection, schedule: Q01DX009 (ip), vehicle: saline + alcohol) 103 % of control; (dose: 50.0 mg/kg/injection, schedule: Q01DX009 (ip), vehicle: saline + alcohol) 104 % of control.

As for `CCCCNC(=O)Nc1cccc(C)c1C`, the T/C under setting [8] is 88 % of control and the T/C (dose: 400.0 mg/kg/injection, schedule: Q01DX009 (ip), vehicle: Klucel (hydroxypropylcellulose) (HPC)) is 94 % of control.

Take `CCC/C(C)=C(/C#N)CC`: the T/C runs as follows: under setting [6], 105 % of control; under setting [7], 103 % of control; under setting [8], 109 % of control.

In the case of `CCCCCCCCCCCCCCCCCC[N+](C)(C)C` (tested in a mixture with another compound), the T/C was 90 % of control (dose: 0.1 mg/kg/injection, schedule: Q01DX009 (ip), vehicle: saline sonified); 86 % of control (dose: 2.0 mg/kg/injection, schedule: Q01DX009 (ip), vehicle: saline sonified); 86 % of control (dose: 4.0 mg/kg/injection, schedule: Q01DX009 (ip), vehicle: saline sonified).

As for `NC(=O)CC(NC(=O)CCl)C(=O)O` (centres undefined), the T/C under setting [10] is 98 % of control and the T/C under setting [3] is 99 % of control.
